# Assay results as given in a melting point compilation (Tetko et al.).
# Peptide text beside a SMILES is read from it.
row,SMILES,melting point [°C]
1,Clc1c2ccccc2nc2ccccc12,121
2,CC(=O)NC(Cc1ccccc1F)C(=O)O (racemic),153 to 155
3,CCCCCCCCOc1ccc(C(=O)OC)cc1,35
4,BrC(c1ccccc1)c1ccccc1,45
5,CCOC(=O)Cn1cnc(Cl)c1Cl,65 to 67
6,COC(=O)C1=C(C)NC(=O)N(C=O)C1c1ccccc1 (centres undefined),236
7,CCCCCCCOC(=O)CCCC,-46.4
8,CCOP(=S)(Oc1ccc(C#N)cc1)c1ccccc1 (centres undefined),83
9,O=C(O)c1cc(Cl)c(Cl)cc1Cl,166
10,NNc1nc(-c2ccccc2)c2c(N)n[nH]c2n1,241 to 244
11,CN(C)c1ccc(C2Nn3c(nnc3-c3ccc([N+](=O)[O-])cc3)S2)cc1 (centres undefined),176
12,O=C(NC1(Cc2ccccc2)COCOC1=O)c1ccccc1 (racemic),176 to 178
13,CC(=O)Nc1ccc(C)cc1C,129
14,Nc1ccc(N)c2c1C(=O)c1c(N)ccc(N)c1C2=O,285
15,Cc1cc(C=O)c(O)c(C=O)c1,127 to 131
16,CCOC(=O)C1CN(Cc2ccco2)C(=O)C1=O (centres undefined),127 to 129
17,c1ccc2c(c1)oc1ccccc12,86.5
18,NNC(=O)C1CCCCC1,153 to 155
19,CC1(c2ccccc2)CC(C(=NOCC2CO2)c2cc3ccccc3o2)C1 (centres undefined),159 to 160
20,C=O,-92
21,Cc1cc(O)c(C)c(C)c1O,173
22,Cn1c(=O)c(C(N)=NO)cn(-c2ccccc2)c1=O,189 to 191
23,N=C(NCCCC(N)C(=O)O)N[N+](=O)[O-] (centres undefined),257
24,C[Si]1(C)O[Si](C)(C)O[Si](C)(C)O[Si](C)(C)O[Si](C)(C)O1,-38
25,CC(C)=CC1C(C(=O)OCN2C(=O)C3=C(CCCC3)C2=O)C1(C)C (centres undefined),69

row,SMILES,melting point [°C]
1,COc1cc([N+](=O)[O-])c(Cl)cc1NC(C)=O,185
2,COc1ccccc1C1CCN(c2ccc(C=CC(=O)O)cc2[N+](=O)[O-])CC1,204 to 206
3,C#Cc1ccc(F)cc1,28
4,O=Cc1ccc2[nH]ccc2c1,98
5,O=[N+]([O-])c1ncccc1Cl,91
6,Cc1nc(-c2ccccc2)cs1,54
7,C[N+](C)(C)CCOP(=O)([O-])OCC(O)CO (centres undefined),142
8,CC(C)(O)C(N)C(=O)O (racemic),200 to 202
9,NNC(=O)c1ccccc1Oc1ccccc1,99 to 103
10,CC(C)[C@H](NC(=O)CN)C(=O)O (H-Gly-Val-OH),248
11,O=C1c2ccccc2CC2C=CC=CN12 (centres undefined),93
12,Cc1nc2ccc(C(=O)O)cc2nc1C,230
13,CCCCOCCCN,-65
14,CCCCCC(O)C=CC1C(O)CC(O)C1CC=CCCCC(=O)O (centres undefined),30
15,CSc1ccc(CO)cc1,42
16,NNC(=O)C(O)c1ccccc1 (centres undefined),130
17,O=C(NC1CCCCC1)c1ccccc1,145
18,O=C=Nc1cc(F)cc2c1OCOC2,85 to 86
19,O=C1CCc2ccc(O)cc2N1,232
20,COc1ccccc1OCCNCC(O)COc1cccc2[nH]c3ccccc3c12 (centres undefined),114
21,CC(NC(=O)C(F)(F)C(F)(F)C(F)(F)C(F)(F)C(F)(F)C(F)(F)C(F)(F)C(F)(F)F)c1ccccc1 (centres undefined),100
22,CCOCCN(Cc1ccc(CN(CCOCC)C(=O)C(Cl)Cl)cc1)C(=O)C(Cl)Cl,140
23,CCCCOc1ccc(N)cc1[N+](=O)[O-],60 to 64
24,CCCCCCCC1CCCC1,-53
25,CC(C)c1ccncc1,-54.9

row,SMILES,melting point [°C]
1,O=C(c1ccc2c(c1O)CC=CC2)c1cccc2ccccc12,132
2,C(=CC=Cc1ccccc1)C=Cc1ccccc1,199 to 203
3,CCOC(=O)C1=C(N)n2nc(C(F)(F)F)nc2NC1c1ccc(Cl)cc1 (centres undefined),198
4,COc1ccc(C(=O)N(NC(=O)c2ccccc2)C(C)(C)C)cc1OC,206
5,CC1C(=O)C23C4CC5C(C)(C)CCC(=O)C5(C)C2C(=O)CC1C3OC(C)(C)O4 (centres undefined),197
6,Fc1ccc(C=Nc2n[nH]c(N=Cc3ccc(F)cc3)c2Cc2ccc(Cl)cc2)cc1,223 to 225
7,CC=CC=CCCCCCCCO,32
8,O=C(CBr)Nc1ccccc1C(=O)c1ccccc1,94 to 95
9,Oc1ccc(C2SCCS2)cc1,118
10,N#CCc1ccc(OS(=O)(=O)c2ccc(Cl)cc2)cc1,95 to 97
11,CCN(CC)c1ccc(C=NN(c2ccccc2)c2ccccc2)cc1,92 to 95
12,C=CC(Cl)CCl (centres undefined),-61
13,Nc1c(Br)cc(Br)c(Cl)c1Cl,98
14,Cn1c(=O)c(C2=NNC(=O)C2=Cc2c[nH]c3ccccc23)c(O)c2ccccc21,297
15,CC=C1CC(C)C(O)(CO)C(=O)OCC2=CCN3CCC(OC1=O)C23 (centres undefined),212
16,Cc1cc(C)n2nc(SCc3ccccc3)nc2n1,135 to 136
17,O=C(Nc1cccc(N=[N+]([O-])c2cccc(NC(=O)c3ccccc3)c2)c1)c1ccccc1,247
18,COC(=O)C1(C(=O)OC)Cc2cc(OC)ccc2C(=O)O1,134
19,Cc1noc(-c2ccc(CBr)cc2)n1,114 to 116
20,Cn1ncc(C=O)c1N,161 to 163
21,N#CC1=C(N)Oc2c(c(C(F)(F)F)nn2-c2ccccc2)C1c1ccc(F)cc1 (centres undefined),202
22,Cc1c(N=C=O)cccc1N=C=O,18.3
23,CC(/C=C/c1ccccc1)=C\C(C)=N\Nc1ccc([N+](=O)[O-])cc1[N+](=O)[O-],232 to 234
24,CCCNCCC,-63
25,c1ccc2c(c1)cnc1ccccc12,107

row,SMILES,melting point [°C]
1,CON1C(=O)C(=O)N(OC)C2CCCCC21 (centres undefined),128 to 131
2,O=C(Oc1ccc2ccccc2c1)c1cccc(S(=O)(=O)Oc2ccc3ccccc3c2)c1,172
3,Cc1nc(-c2ccccc2)sc1C(=O)NN,168 to 170
4,COc1cc(Cl)c(NC(C)=O)c(Cl)c1,186 to 188
5,O=C(Cc1ccccc1)c1ccc2c3c(ccc([N+](=O)[O-])c13)CC2,189
6,Cc1cc(C)c(CC(=O)c2cc3cc(Br)ccc3o2)c(C)c1,123 to 124
7,CCCCCCCCC(C(=O)O)C(=O)O,116
8,CC1(C)CC(=O)CC(C)(C)C1,11 to 12
9,O=C(O)c1cc2cc(OCc3ccccc3)ccc2[nH]1,197
10,O=Cc1ccc(-c2ncccn2)cc1,108 to 109
11,O=C(CCCl)c1ccc(Br)cc1,60
12,Sc1c(Cl)c(Cl)cc(Cl)c1Cl,105 to 107
13,CC1(C)OC(C)(C(OC(=O)c2ccc(Br)cc2)C2CCCCC2)CCC1C(=O)O (centres undefined),111
14,CC(=O)C1CCC2C3CCC4=CC(=O)CCC4(C)C3CCC12C (centres undefined),128 to 132
15,O=C(C(=O)c1ccc([N+](=O)[O-])cc1)c1ccccc1,141 to 143
16,COc1cc(C=CC(=O)O)cc(OC)c1,173 to 176
17,N/N=C(/C(=O)c1ccc2c3c(cccc13)CC2)c1ccccc1,200
18,CCC1C(C#N)=C(N)Oc2c1c(=O)oc1ccccc21 (centres undefined),233 to 237
19,COc1cc2c(cc1OC)OC(C)(C)C=C2,46
20,CCCCCCC(N)C(=O)O (centres undefined),270
21,O=C(O)c1cc(-c2ccco2)on1,151
22,CC(C)(C)OC(=O)NC(Cc1cccc2ccccc12)C(=O)O (centres undefined),145 to 148
23,CCOC(=O)Cc1c(C(=O)OCC)[nH]c(C)c1C(=O)OCc1ccccc1,110 to 112
24,Cc1ccc(C(c2ccc(C)o2)c2ccccc2O)o1,65
25,COc1ccc(C#N)cn1,94 to 95

row,SMILES,melting point [°C]
1,NCC(O)C(O)C(O)C(O)CO (centres undefined),127
2,CCC1c2ccccc2N(C)C12C=Cc1cccc([N+](=O)[O-])c1O2 (centres undefined),148
3,Oc1c(CN2CCCCC2)ccc2ccccc12,134 to 136
4,CC(C)C[C@H]1OC[C@@H](C)CO1,< -21
5,COC(=O)c1ccc(NC(C)C)c(N)c1,104 to 106
6,CCC1CCC(=O)O1 (centres undefined),-18
7,CC12C=CC(CC1)C2(C)C (centres undefined),113
8,O=C(O)c1cc2cc(Br)ccc2oc1=O,195
9,Cc1cc([N+](=O)[O-])ccc1O,96
10,COC(=O)c1cccc(C#N)c1,65
11,CN(C)c1ccc(C2CC(c3ccc4ccccc4c3)=NN2c2ccccc2)cc1 (centres undefined),186
12,CCCCCCCCCCCCCCCCCC(=O)OCC(COC(=O)CCCCCCCCCCCCCCCCC)OC(=O)CCCCCCCCCCCCCCCCC,55
13,COc1ccc(N2C(=O)C3ON=C(C(=O)c4ccco4)C3C2=O)cc1 (centres undefined),137
14,O=S(=O)(O)c1cccnc1,300
15,O=Cc1csc(-c2ccc(C(F)(F)F)cc2)n1,103 to 105
16,O=C(O)c1cc(N(Cc2ccccc2O)Cc2cc(O)ccc2O)ccc1O,205 to 215
17,O=C(O)CCc1ccc(O)c(O)c1,138
18,O=C1C(=C2C=Cc3ccccc3N2)C(=O)c2ccccc21,240 to 241
19,O=C(O)C1(C(F)(F)F)CCCCC1,69.5
20,CCOC(=O)c1c(C)sc(Sc2ccccc2[N+](=O)[O-])c1OC(C)=O,130 to 131
21,COc1ccc(-c2ccc(S(=O)(=O)NCCC(=O)O)cc2)cc1,190
22,Cc1cc(C(=O)O)ccc1F,167
23,O=C(Nc1ccc(C#Cc2ccc(NC(=O)c3ccccc3)cc2)cc1)c1ccccc1,332
24,CCCCOCCOCCO,-68
